The results in this text go back to patent US20160022621A1, “COMPOSITION FOR ORAL ADMINISTRATION FOR BINDING ALDEHYDES IN THE GASTROINTESTINAL TRACT” (BIOHIT OYJ, priority 2013, published 2016).

Series [1] can be described thus: Acetaldehyde-binding: acetaldehyde and ethanol levels in gastric juice after oral L-cysteine tablets and ethanol. The class given is in vivo, human. The following applies: L-cysteine total 200 mg oral, film-coated tablets; ethanol 0.3 g/kg, 15 vol %; all measurements. The protocol: An analysis was carried out after administering L-cysteine (in a total of 200 mg) or placebo, orally to subjects. This cysteine or placebo was formulated into film-coated tablets as described above, with the cysteine or the placebo in granules together with a polymer not dissolving in the stomach and an inert bulking agent. The subjects swallowed said tablets with 200 ml of water. Immediately thereafter they were given ethanol (0.3 g/kg body weight) diluted in water to 15 vol %. Gastric juice samples were collected, and their L-cysteine concentrations were determined using HPLC, and two parallel samples. […] In all measurements, the average acetaldehyde concentration of the gastric juice was 2.6 times higher with placebo than with cysteine. […] The average ethanol concentration in the gastric juice was 5.0 vol-% in the first sample, declining to 0.9 vol-% in the 40-minute sample. A positive correlation emerged between the acetaldehyde concentration and the ethanol concentration.

The nature of series [2]: L-cysteine concentration in gastric juice (HPLC) after oral tablets. The settings on record: after oral administration of study formulations containing L-cysteine (total 200 mg). The series is classed as in vivo, human. The protocol:
An analysis was carried out after administering L-cysteine (in a total of 200 mg) or placebo, orally to subjects. This cysteine or placebo was formulated into film-coated tablets as described above, with the cysteine or the placebo in granules together with a polymer not dissolving in the stomach and an inert bulking agent. The subjects swallowed said tablets with 200 ml of water. Immediately thereafter they were given ethanol (0.3 g/kg body weight) diluted in water to 15 vol %.
Gastric juice samples were collected, and their L-cysteine concentrations were determined using HPLC, and two parallel samples.
The mean cysteine concentrations are represented in FIG. 2. After administration of placebo formulations, no L-cysteine was detected. No significant correlation was found between the cysteine concentration and the acetaldehyde concentration.

Regarding `N[C@@H](CS)C(=O)O` [L-cysteine], the “average acetaldehyde concentration of the gastric juice, times higher with placebo than with cysteine” value in series [1] amounted to 2.6 times. Besides, in series [2], the “L-cysteine detected in gastric juice” value is given as “detected in the gastric juice of all subjects”.
